In patent US7303915B2, “In vitro-differentiated retinal ganglion cells and method for producing same” (Wisconsin Alumni Research Foundation, priority 2005, dated 2007):
Residues, ends and D or L forms follow the SMILES beside them. *: point of attachment. Cbz = O=C(OCc1ccccc1)*; CH2F = FC*

What was measured:
Thy-1 [1] = assay: Immunoblot analysis of Thy-1 in RGC-5 cells; settings: 316 nM for three days
Method: (§4) After transfer, the membrane was blocked with 5% non-fat milk in TBS (pH 8.0) for 30-60 minutes, and then probed with primary antibodies to RGC marker proteins in blocking buffer. Antibodies used included purified rabbit polyclonal anti-microtubule-associated protein 2 (1:2000; Chemicon; Temecula, Calif.), polyclonal rabbit anti-Thy-1 (1:100; Santa Cruz Biotechnology), and polyclonal rabbit anti-actin (1:1000; Sigma). Blots were rinsed 3 times with TBS containing 0.05% Tween-20 (Fisher Scientific), then washed 5 times for 10 minutes each at room temperature on an orbital shaker. Secondary antibodies used were purified HRP-conjugated goat anti-rabbit IgG and purified HRP-conjugated goat anti-mouse IgG (1:5000; Jackson Immunoresearch Laboratories; West Grove, Pa.), and were incubated for 1 hour at room temperature, followed by 3 rinses and five 10 minute washes with TBS containing Tween-20 at room temperature on an orbital shaker. […] The blots were then exposed to Kodak BioMax XAR film (Eastman Kodak Company; Rochester, N.Y.) and developed. The films were scanned at 1600 dpi and band density was determined by comparing total intensity in an area containing the band of interest to the intensity of an equal size area of background using NIH ImageJ software. Band density readings are presented with respect to the density of the band from the control, untreated cell condition.

Thy-1 [2] = assay: Immunocytochemistry for Thy-1 in RGC-5 cells; type: cell-based, rat; settings: differentiated vs undifferentiated cells, twenty-four hours
Method: (§1) Immunocytochemistry: Differentiated RGC-5 cells plated on coverslips were fixed with 4% paraformaldehyde (Fisher) in PBS, pH 7.2 for 20 minutes at room temperature, rapidly rinsed with Tris-buffered saline (TBS; 100 mM Tris, pH 7.6, 0.9% NaCl) 3 times for a few seconds each and 2 times for 5 minutes each, and blocked with 5% normal goat serum (BioWhittaker) in TBS for 30 minutes at room temperature. The NMDA-R1 receptor was detected by incubating with purified mouse monoclonal anti-NMDA-R1 antibody (BD Biosciences; San Jose, Calif.; clone 54.1) at 2.5 μg/ml overnight at room temperature, followed by Alexa Fluor™ 594 goat anti-mouse IgG at 10 μg/ml in blocking buffer at room temperature for 90 minutes. Alexa Fluor™ 594 fluorescence was detected with a Texas Red filter set (excitation 560±20 nm, dichroic 595 nm long-pass, emission 630±30 nm). Thy-1 was detected after fixing and blocking by incubating with rabbit anti-Thy-1 polyclonal IgG (Santa Cruz Biotechnology; Santa Cruz, Calif.) at 20 μg/ml overnight at 4° C., followed by Alexa Fluor 488 goat anti-rabbit IgG at 4 μg/ml at room temperature for 60 minutes. Alexa Fluor 488 fluorescence was detected with a FITC filter set (excitation 470±20 nm, dichroic 505 nm long-pass, emission 540±20 nm) filter set. […]

RGC-5 cells [3] = assay: Cell number by MTT assay; type: cell-based, rat
Method: Cell number: Cells were plated in 96 well plates and 3-(4,5-dimethylthiazol-2-yl)-2,5-diphenyltetrazolium bromide (MTT) added immediately to a final concentration of 500 μg/ml. Plates were incubated for 5 hours at 37° C. The media was then replaced with 200 μl of DMSO, which was pipetted up and down to dissolve the formazan crystals, and the plate incubated at 37° C. for 5 minutes. Absorbance was measured at 550 nm on a THERMOmax™ microplate reader (Molecular Devices; Sunnyvale, Calif.). All readings were normalized to a standard curve derived from known numbers of cells.

NMDA-R1 = assay: Immunocytochemistry for NMDA-R1 in RGC-5 cells; type: cell-based, rat; settings: differentiated vs undifferentiated cells, twenty-four hours
Method: as §1

[4] = system: microtubule-associated protein 2 (MAP-2); assay: Immunoblot analysis of MAP-2 in RGC-5 cells; settings: 316 nM for three days
Method: as §4

MEK1 S298 = assay: Kinetworks KPSS 2.1 phosphorylation screen, MEK1 S298; type: cell-based, rat; settings: 1 μM for 5 minutes
Method: (§2) Cells were washed with ice-cold PBS, scraped, and centrifuged at 3,200 g for five minutes. The pellets were resuspended in lysis buffer (Kinexus Bioinformatics; Vancouver, BC, Canada) supplemented with 5 mM pepstatin A (Roche; Indianapolis, Ind.), and Complete mini protease inhibitor cocktail (Roche). The suspensions were sonicated on ice for two 15-second bursts, followed by centrifugation at 100,000 g for 30 minutes at 4° C. […] These were then transferred to nitrocellulose membranes. Using a twenty-lane multiblotter (BioRad; Hercules, Calif.), the membranes were incubated with different mixtures of up to three antibodies per lane that react with a distinct subset of at least thirty-seven known phosphorylated sites of cell signaling proteins of distinct molecular masses. After further incubation with a mixture of relevant HRP conjugated secondary antibodies (Santa Cruz Biotechnology), the blots were developed using ECL Plus reagent (Amersham Pharmacia; Piscataway, N.J.) and signals quantified using Quantity One software (BioRad). Detailed information and protocols of the Kinetworks™ analysis can be found at the Kinexus Bioinformatics Corporations website.

RGC-5 cells [5] = assay: Nuclear condensation changes of apoptosis (Hoechst 33258); type: cell-based, rat; settings: twenty-four hour incubation, Hoechst 33258 10 μg/ml for thirty minutes
[6] = system: focal adhesion kinase (FAK) S722; assay: Kinetworks KPSS 2.1 phosphorylation screen, FAK S722; type: cell-based, rat; settings: 1 μM for 5 minutes
Method: as §2

PKR T451 = assay: Kinetworks KPSS 2.1 phosphorylation screen, PKR T451; type: cell-based, rat; settings: 1 μM for 5 minutes
Method: (§3) Analysis of kinasephosphorylation targets: Total cell lysates were prepared as described in Zhang H, et al., J Biol Chem 276:6905-6908 (2001). Cells were washed with ice-cold PBS, scraped, and centrifuged at 3,200 g for five minutes. The pellets were resuspended in lysis buffer (Kinexus Bioinformatics; Vancouver, BC, Canada) supplemented with 5 mM pepstatin A (Roche; Indianapolis, Ind.), and Complete mini protease inhibitor cocktail (Roche). The suspensions were sonicated on ice for two 15-second bursts, followed by centrifugation at 100,000 g for 30 minutes at 4° C. […] Bradford M M, Anal Biochem 72:248-254 (1976). These were then transferred to nitrocellulose membranes. Using a twenty-lane multiblotter (BioRad; Hercules, Calif.), the membranes were incubated with different mixtures of up to three antibodies per lane that react with a distinct subset of at least thirty-seven known phosphorylated sites of cell signaling proteins of distinct molecular masses. After further incubation with a mixture of relevant HRP conjugated secondary antibodies (Santa Cruz Biotechnology), the blots were developed using ECL Plus reagent (Amersham Pharmacia; Piscataway, N.J.) and signals quantified using Quantity One software (BioRad). Detailed information and protocols of the Kinetworks™ analysis can be found at the Kinexus Bioinformatics Corporations website.

RGC-5 cells [7] = assay: Whole-cell voltage-clamp recording of RGC-5 cells; type: cell-based, rat; settings: for conductance of outward currents at +90 mV: after leak subtraction
Method: No series resistance compensation was used. Currents were low-pass filtered at 1-5 kHz with a four-pole Bessel filter, and digitized at a rate no less than twice the filter frequency. […] Analysis and curve fitting was also performed using AxoGraph.
Voltage-gated currents were studied by applying 10 ms voltage steps from −100 to +90 mV in 10 mV increments, from a holding potential of −60 mV. This protocol was run 2-6 times on each cell and the currents evoked at each potential were averaged. Passive leak and capacitive currents were removed by scaling the average current evoked at −70 mV, and subtracting the result from the average current obtained at each voltage. Current amplitudes were measured at steady-state (i.e., near the end of the voltage step), and the slope conductance was computed as the difference between successive amplitudes, divided by the 10 mV step increment.

CDK1 T14/Y15 = assay: Kinetworks KPSS 2.1 phosphorylation screen, CDK1 T14/Y15; type: cell-based, rat; settings: 1 μM for 5 minutes
Method: as §3

c-Kit Y703 = assay: Kinetworks KPSS 2.1 phosphorylation screen, c-Kit Y703; type: cell-based, rat; settings: 1 μM for 5 minutes
Method: as §3

ERK1 T202/Y204 = assay: Kinetworks KPSS 2.1 phosphorylation screen, ERK1 T202/Y204; type: cell-based, rat; settings: 1 μM for 5 minutes
Method: as §3

RGC-5 cells [8] = assay: Morphological differentiation and neurite count of RGC-5 cells; settings: for morphological evidence of differentiation: apoptosis inducer; for rounding of the cell soma: specific kinase inhibitors on RGC-5 cells
Method: Cell culture: RGC-5 cells were cultured in Dulbecco's modification of Eagle's medium (DMEM; Mediatech, Inc.; Herndon, Calif.) containing 1 mg/L glucose with L-glutamine, supplemented with 10% FBS, 100 U/ml penicillin and 100 μg/ml streptomycin. Cells were incubated at 37° C. in humidified 5% CO2.
Pharmacological agents were used to induce or to inhibit various signaling pathways within RGC-5 cells. Cells were replated on 12 mm round cover glass in 24 well plates 24 hours prior to pharmacological treatment. Drugs were added for varying lengths of time and then processed for immunocytochemistry.
Cell morphology: Photomicrographs were taken at 400× total magnification with Nomarski optics, digitized as above, and stored as JPEG images. The pictures were then batch analyzed off-line to assess the development of neurites. A total of fifty cells from each condition were analyzed. The fifty cells assessed for neurite outgrowth in each condition were selected to include all cells in each photomicrograph for which the neurite tree was visible, and continuing with a new photomicrograph until fifty cells were analyzed. Projections from the cell were classified as neurites if they were equal or greater in length than the cell soma. Only branches arising from the soma were counted. The neurite counts were expressed as mean±S.E.M.

Rho-Kinase = settings: cited from earlier work
PKA = settings: read-out: Ki protein kinase A; cited from earlier work
[9] = 1 hr [24 hr], cells with large conductance

SMILES: CN[C@@H]1C[C@H]2O[C@@](C)([C@@H]1OC)n1c3ccccc3c3c4c(c5c6ccccc6n2c5c31)C(=O)NC4 [staurosporine]
- Thy-1 level (Western blot) (Thy-1 [1]): increased levels
- Thy-1 labeling (Thy-1 [2]): visibly more intense staining
- cell number (MTT) (RGC-5 cells [3]; 1 hour after culture): 7133±266 cells
- cell number (MTT) (RGC-5 cells [3]; twenty-four hours): 10,094±1023 cells
- NMDA-R1 labeling (NMDA-R1): visibly more intense staining
- MAP-2 level (Western blot) [4]: increased levels
- decrease in phosphorylation of MEK1 S298 vs control (MEK1 S298): 100%
- nuclear condensation (Hoechst 33258) (RGC-5 cells [5]): the same as controls, with finely granular nuclei that were not compacted
- increase in phosphorylation of S722 of FAK vs sham-treated cells [6]: 90%
- decrease in phosphorylation of PKR T451 vs control (PKR T451): 100%
- conductance of outward currents at +90 mV (RGC-5 cells [7]; 1 hr [24 hr], untreated 3.1±0.5): 14±5 nS
- apparent half-activation voltage (Boltzmann fit) (RGC-5 cells [7]; [9]): +48 mV
- maximal conductance (Boltzmann fit) (RGC-5 cells [7]; [9]): 26 nS
- apparent capacitance (RGC-5 cells [7]; 1 hr [24 hr], untreated 28±2): 31±5 pF
- resting potential (RGC-5 cells [7]; 1 hr [24 hr], untreated −34±0.5): −27±9 mV
- resting potential (RGC-5 cells [7]; 1 hr [48 hr]): −9±6 mV
- conductance of outward currents at +90 mV (RGC-5 cells [7]; 1 hr [48 hr]): 7±3 nS
- input resistance (RGC-5 cells [7]; 1 hr [48 hr], n=4): 322±89 MΩ
- apparent capacitance (RGC-5 cells [7]; 1 hr [48 hr], p<0.05): 44±3 pF
- apparent capacitance (RGC-5 cells [7]; 22 hr [2 hr]): 38±3
- resting potential (RGC-5 cells [7]; 22 hr [2 hr]): −11±3
- conductance of outward currents at +90 mV (RGC-5 cells [7]; 22 hr [2 hr]): 5±3 nS
- increase in phosphorylation of CDK1 T14/Y15 vs control (CDK1 T14/Y15): 64%
- increase in phosphorylation of c-Kit Y703 vs control (c-Kit Y703): 43%
- phosphorylation of ERK1 T202/Y204 vs control (ERK1 T202/Y204): not present in control
- differentiation-inducing activity in RGC-5 cells (RGC-5 cells [8]): strong differentiation inducer
- neurite branching (RGC-5 cells [8]; 316 nM): minimally branched neurites
- differentiation after short exposure (RGC-5 cells [8]; 1 μM for sixty seconds, then fresh media until twenty-four hours from treatment): definite morphological signs of differentiation
- concentrations frequently toxic (necrotic cell body, blebbing and disruption of the neurite tree) (RGC-5 cells [8]; RGC-5 cells): higher than 1.78 μM
- neurites per cell (RGC-5 cells [8]; RGC-5 cells, 1 μM, average±SEM from 50 cells): 2.94±0.11 neurites per cell
- average and total process length (RGC-5 cells [8]; high (3.16 μM) concentration): average and total process length decreased somewhat
- neurite branching (RGC-5 cells [8]; high (3.16 μM) concentration): neurite branching was greater
- average and total neurite outgrowth (RGC-5 cells [8]; moderate (1 μM) concentration): promoted longer average and total neurite outgrowth

SMILES: C/C=C(/C)C(=O)O[C@H]1C(C)=C2[C@H]([C@@H]1OC(=O)CCCCCCC)[C@@](C)(OC(C)=O)C[C@H](OC(=O)CCC)[C@@]1(O)[C@H]2OC(=O)[C@@]1(C)O [thapsigargin, Thapsigargin]
- cell shape (RGC-5 cells [8]; 10 μM): did cause cells to become more spindle-shaped
- morphological evidence of differentiation (RGC-5 cells [8]; 10 μM): None resulted in morphological evidence of differentiation

SMILES: COC(=O)C[C@H](NC(=O)[C@H](C)NC(=O)[C@@H](NC(=O)OCc1ccccc1)C(C)C)C(=O)CF [ZVAD-fmk] (Cbz-Val-Ala-Asp(OMe)-CH2F)
- effect of pretreatment on differentiation with SS (RGC-5 cells [8]): did not inhibit differentiation with SS
- differentiation of undifferentiated cells by the agent alone (RGC-5 cells [8]; without staurosporine): did not differentiate

SMILES: Cc1cncc2cccc(S(=O)(=O)N3CCCNC[C@@H]3C)c12 [H-1152]
- Ki (Rho-Kinase): 0.0016 µM
- differentiation-inducing activity in RGC-5 cells (RGC-5 cells [8]): weak differentiation inducers
- neurites expressed (RGC-5 cells [8]; RGC-5 cells, 1 μM): 1.06±0.15 neurites
- rounding of the cell soma (RGC-5 cells [8]): did not produce rounding of the cell soma

SMILES: O=S(=O)(NCCNC/C=C/c1ccc(Br)cc1)c1cccc2cnccc12 [H-89]
- Ki (PKA): 0.05 µM
- differentiation-inducing activity in RGC-5 cells (RGC-5 cells [8]): weak differentiation inducers
- neurites expressed (RGC-5 cells [8]; RGC-5 cells, 56.2 μM): 1.80±0.16 neurites
- rounding of the cell soma (RGC-5 cells [8]): did not produce rounding of the cell soma

SMILES: C=C(C)[C@H]1Cc2c(ccc3c2O[C@@H]2COc4cc(OC)c(OC)cc4[C@@H]2C3=O)O1 [rotenone]
- morphological evidence of differentiation (RGC-5 cells [8]; 10 μM): None resulted in morphological evidence of differentiation

SMILES: C[C@H](CCC(=O)O)C[C@H](C)C[C@H](C)C(=O)/C=C(\O)[C@H](C)C[C@H](C)C/C=C/[C@@H](C)[C@@H](O)[C@@H](C)[C@@H](O)C[C@@H]1CC[C@@](C)([C@H]2CC[C@@](C)([C@@H](C)O)O2)O1 [ionomycin]
- nuclear condensation (Hoechst 33258) (RGC-5 cells [5]): induced nuclear condensation
- morphological evidence of differentiation (RGC-5 cells [8]; 20 μM): None resulted in morphological evidence of differentiation
